Earlier results, collected in patent US20040147581A1, “Method of using a Cox-2 inhibitor and a 5-HT1A receptor modulator as a combination therapy” (Pharmacia Corporation, priority 2002, published 2004).

System: fibroblast growth factor-induced corneal angiogenesis
Conditions: rats

Structure (SMILES): Cc1ccc(-c2cc(C(F)(F)F)nn2-c2ccc(S(N)(=O)=O)cc2)cc1 [Celecoxib, celecoxib]
- inhibition of fibroblast growth factor-induced corneal angiogenesis: potent inhibition
